Measurements: PubChem BioAssay AID328 (DTP/NCI, 2004)
“And” between values parts separate entries of the source, which are not always exact repeats. Equal values may be shown once. Inconclusive results and toxic doses are left out.

System: BDF1 mice, P388 leukemia ip, median survival T/C
Experiment: NCI In Vivo Anticancer Drug Screen. Data for tumor model P388 Leukemia (intraperitoneal) in B6D2F1 (BDF1) mice
Settings: endpoint: median survival time, higher = longer survival
How it was run: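 Vehicle-dosed animals serve as the reference; survival of compound-dosed, tumour-implanted mice is divided by it.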

[1] = dose: 200.0 mg/kg/injection, schedule: Q04DX003 (ip), vehicle: saline with Tween-80
[2] = dose: 25.0 mg/kg/injection, schedule: Q01DX009 (ip), vehicle: saline with Tween-80
[3] = dose: 50.0 mg/kg/injection, schedule: Q01DX009 (ip), vehicle: saline with Tween-80
[4] = dose: 100.0 mg/kg/injection, schedule: Q04DX003 (ip), vehicle: saline
[5] = dose: 200.0 mg/kg/injection, schedule: Q04DX003 (ip), vehicle: saline

SMILES: C[Se]c1ncnc2c(C3OC(CO)C(O)C3O)[nH]nc12 (centres undefined)
- T/C (dose: 0.5 mg/kg/injection, schedule: Q01DX009 (ip), vehicle: saline with Tween-80): 118 % of control
- T/C (dose: 1.0 mg/kg/injection, schedule: Q01DX009 (ip), vehicle: saline with Tween-80): 90 % of control
- T/C (dose: 2.0 mg/kg/injection, schedule: Q01DX009 (ip), vehicle: saline with Tween-80): 109 % of control
- T/C (dose: 4.0 mg/kg/injection, schedule: Q01DX009 (ip), vehicle: saline with Tween-80): 100 % of control
- T/C (dose: 6.25 mg/kg/injection, schedule: Q01DX009 (ip), vehicle: saline): 114 % of control
- T/C (dose: 8.0 mg/kg/injection, schedule: Q01DX009 (ip), vehicle: saline with Tween-80): 90 % of control
- T/C (dose: 12.5 mg/kg/injection, schedule: Q01DX009 (ip), vehicle: saline): 98 % of control
- T/C (dose: 12.5 mg/kg/injection, schedule: Q04DX003 (ip), vehicle: saline): 98 % of control
- T/C (dose: 25.0 mg/kg/injection, schedule: Q04DX003 (ip), vehicle: saline): 92 % of control

SMILES: CCOC(=O)CCC(C(=O)OCC)C(=O)OCC
- T/C (dose: 100.0 mg/kg/injection, schedule: Q01DX009 (ip), vehicle: saline with Tween-80): 107 % of control
- T/C (dose: 100.0 mg/kg/injection, schedule: Q04DX003 (ip), vehicle: saline with Tween-80): 91 % of control
- T/C (dose: 200.0 mg/kg/injection, schedule: Q01DX009 (ip), vehicle: saline with Tween-80): 100 % of control
- T/C [1]: 100 % of control
- T/C (dose: 400.0 mg/kg/injection, schedule: Q01DX009 (ip), vehicle: saline with Tween-80): 92 % of control
- T/C (dose: 400.0 mg/kg/injection, schedule: Q04DX003 (ip), vehicle: saline with Tween-80): 95 % of control

SMILES: Cc1c(C=[N+]2CCCCC2)c2ccccc2n1C
- T/C (dose: 6.25 mg/kg/injection, schedule: Q01DX009 (ip), vehicle: saline with Tween-80): 96 % of control
- T/C (dose: 12.5 mg/kg/injection, schedule: Q01DX009 (ip), vehicle: saline with Tween-80): 105 % of control
- T/C [2]: 93 % of control
- T/C [3]: 99 % of control

SMILES: CC(=O)[O][Pb]([CH2]C(C)C)([CH2]C(C)C)[CH2]C(C)C
- T/C (dose: 0.75 mg/kg/injection, schedule: Q01DX009 (ip), vehicle: Klucel (hydroxypropylcellulose) (HPC)): 107 % of control
- T/C (dose: 1.5 mg/kg/injection, schedule: Q01DX009 (ip), vehicle: Klucel (hydroxypropylcellulose) (HPC)): 109 % of control
- T/C (dose: 3.0 mg/kg/injection, schedule: Q01DX009 (ip), vehicle: Klucel (hydroxypropylcellulose) (HPC)): 105 % of control
- T/C (dose: 6.0 mg/kg/injection, schedule: Q01DX009 (ip), vehicle: Klucel (hydroxypropylcellulose) (HPC)): 107 % of control
- T/C (dose: 12.0 mg/kg/injection, schedule: Q01DX009 (ip), vehicle: Klucel (hydroxypropylcellulose) (HPC)): 107 % of control

SMILES: O=Cc1c2ccc(Cl)cc2nc2ccc(Cl)cc12
- T/C (dose: 100.0 mg/kg/injection, schedule: Q01DX001 (ip), vehicle: saline with Tween-80): 100 % of control
- T/C (dose: 200.0 mg/kg/injection, schedule: Q01DX001 (ip), vehicle: saline with Tween-80): 100 % of control
- T/C (dose: 400.0 mg/kg/injection, schedule: Q01DX001 (ip), vehicle: saline with Tween-80): 100 % of control

SMILES: CC(C)CCNc1ccc(NCCC(C)C)cc1
- T/C (dose: 2.34 mg/kg/injection, schedule: Q01DX009 (ip), vehicle: alcohol): 100 % of control
- T/C (dose: 4.68 mg/kg/injection, schedule: Q01DX009 (ip), vehicle: alcohol): 100 % of control
- T/C (dose: 9.37 mg/kg/injection, schedule: Q01DX009 (ip), vehicle: alcohol): 112 % of control
- T/C (dose: 13.75 mg/kg/injection, schedule: Q04DX003 (ip), vehicle: alcohol): 109 % of control
- T/C (dose: 18.75 mg/kg/injection, schedule: Q01DX009 (ip), vehicle: alcohol): 122 % of control
- T/C (dose: 27.5 mg/kg/injection, schedule: Q04DX003 (ip), vehicle: alcohol): 109 % of control

SMILES: c1ccc(C2CC3CCCCN3O2)cc1 (centres undefined)
- T/C (dose: 100.0 mg/kg/injection, schedule: Q04DX002 (ip), vehicle: saline with Tween-80): 94 % of control
- T/C (dose: 200.0 mg/kg/injection, schedule: Q04DX002 (ip), vehicle: saline with Tween-80): 103 % of control
- T/C (dose: 400.0 mg/kg/injection, schedule: Q04DX002 (ip), vehicle: saline with Tween-80): 86 % of control

SMILES: C[n+]1ccc(Nc2ccc(NC(=O)c3ccc(N)cc3)cc2)cc1
- T/C (dose: 12.5 mg/kg/injection, schedule: Q01DX009 (ip), vehicle: water): 101 % of control
- T/C (dose: 12.5 mg/kg/injection, schedule: Q04DX003 (ip), vehicle: water): 100 % of control
- T/C (dose: 25.0 mg/kg/injection, schedule: Q04DX003 (ip), vehicle: water): 98 % of control
- T/C (dose: 50.0 mg/kg/injection, schedule: Q04DX003 (ip), vehicle: water): 100 % of control and 106 % of control
- T/C (dose: 100.0 mg/kg/injection, schedule: Q01DX009 (ip), vehicle: water): 155 % of control
- T/C (dose: 100.0 mg/kg/injection, schedule: Q04DX003 (ip), vehicle: water): 116 % of control and 117 % of control
- T/C (dose: 200.0 mg/kg/injection, schedule: Q01DX009 (ip), vehicle: water): 154 % of control
- T/C (dose: 400.0 mg/kg/injection, schedule: Q01DX009 (ip), vehicle: water): 180 % of control
- T/C (dose: 500.0 mg/kg/injection, schedule: Q04DX003 (ip), vehicle: water): 123 % of control
- T/C (dose: 600.0 mg/kg/injection, schedule: Q04DX003 (ip), vehicle: water): 103 % of control

SMILES: CC12CCC(C(N)C1=O)C2(C)C (centres undefined)
- T/C (dose: 50.0 mg/kg/injection, schedule: Q01DX009 (ip), vehicle: saline): 107 % of control
- T/C (dose: 100.0 mg/kg/injection, schedule: Q01DX009 (ip), vehicle: saline): 114 % of control
- T/C [4]: 101 % of control
- T/C (dose: 200.0 mg/kg/injection, schedule: Q01DX009 (ip), vehicle: saline): 86 % of control
- T/C [5]: 104 % of control

SMILES: O=C(C=C(C(F)(F)F)C(F)(F)F)c1ccc([N+](=O)[O-])cc1
- T/C (dose: 1.56 mg/kg/injection, schedule: Q01DX009 (ip), vehicle: other): 100 % of control
- T/C (dose: 3.13 mg/kg/injection, schedule: Q01DX009 (ip), vehicle: other): 109 % of control
- T/C (dose: 6.25 mg/kg/injection, schedule: Q01DX009 (ip), vehicle: other): 104 % of control

SMILES: O=C(O)CCN1CCCc2ccccc21
- T/C (dose: 50.0 mg/kg/injection, schedule: Q01DX009 (ip), vehicle: other): 95 % of control
- T/C (dose: 100.0 mg/kg/injection, schedule: Q01DX009 (ip), vehicle: other): 104 % of control
- T/C (dose: 200.0 mg/kg/injection, schedule: Q01DX009 (ip), vehicle: other): 95 % of control

SMILES: C#CC(OC(=O)NC1CCCCC1)(c1ccccc1)c1ccccc1
- T/C (dose: 16.5 mg/kg/injection, schedule: Q01DX009 (ip), vehicle: saline with Tween-80): 98 % of control
- T/C [2]: 215 % of control
- T/C (dose: 37.5 mg/kg/injection, schedule: Q01DX009 (ip), vehicle: saline with Tween-80): 213 % of control
- T/C [3]: 190 % of control
- T/C (dose: 88.0 mg/kg/injection, schedule: Q04DX003 (ip), vehicle: saline with Tween-80): 183 % of control
- T/C (dose: 132.0 mg/kg/injection, schedule: Q04DX003 (ip), vehicle: saline with Tween-80): 187 % of control
- T/C [1]: 116 % of control

SMILES: Nc1cc(Cl)c(O)c(Cl)c1
- T/C (dose: 50.0 mg/kg/injection, schedule: Q04DX003 (ip), vehicle: saline): 100 % of control
- T/C [4]: 100 % of control
- T/C [5]: 95 % of control

SMILES: CC(=O)N1c2ccccc2C23CCN4CC5=CCOC(O)C(C5CC42)C13 (centres undefined)
- T/C (dose: 30.0 mg/kg/injection, schedule: Q01DX009 (ip), vehicle: saline): 152 % of control

SMILES: COc1ccc(CN(CC(=O)O)S(C)(=O)=O)cc1
- T/C (dose: 100.0 mg/kg/injection, schedule: Q04DX003 (ip), vehicle: other): 103 % of control
- T/C (dose: 200.0 mg/kg/injection, schedule: Q04DX003 (ip), vehicle: other): 100 % of control
- T/C (dose: 400.0 mg/kg/injection, schedule: Q04DX003 (ip), vehicle: other): 109 % of control

SMILES: CNC(=S)N/N=C/C(=O)c1ccco1
- T/C (dose: 22.5 mg/kg/injection, schedule: Q01DX009 (ip), vehicle: saline with Tween-80): 104 % of control
- T/C (dose: 45.0 mg/kg/injection, schedule: Q01DX009 (ip), vehicle: saline with Tween-80): 98 % of control
- T/C (dose: 90.0 mg/kg/injection, schedule: Q01DX009 (ip), vehicle: saline with Tween-80): 105 % of control

SMILES: CN1CCN(c2ccc([N+](=O)[O-])c3nonc23)CC1
- T/C (dose: 10.0 mg/kg/injection, schedule: Q01DX009 (ip), vehicle: saline with Tween-80): 100 % of control
- T/C (dose: 20.0 mg/kg/injection, schedule: Q01DX009 (ip), vehicle: saline with Tween-80): 100 % of control
- T/C (dose: 20.0 mg/kg/injection, schedule: Q04DX003 (ip), vehicle: saline with Tween-80): 100 % of control
- T/C (dose: 40.0 mg/kg/injection, schedule: Q01DX009 (ip), vehicle: saline with Tween-80): 99 % of control
- T/C (dose: 40.0 mg/kg/injection, schedule: Q04DX003 (ip), vehicle: saline with Tween-80): 92 % of control
